In US8956869B2, “Peptide inhibiting differentiation of hematopoietic stem cells or hematopoietic precursor cells and use of same” (Kyushu University, National University Corporation, priority 2009, dated 2015):
Where a SMILES comes first, the peptide text is derived from it. Where no end group is shown, it is not given here. The star is where a group is joined. Myristoyl = CCCCCCCCCCCCCC(=O)*

Assays:
Assay type in all cases: cell-based
[1] = Confirmation of induction of cell death (PI staining, live cell ratio); details: human, liquid-cultured 11 days
Experimental: (§1) (1-2) In order to confirm induction of cell death, cells that were liquid-cultured for 11 days in each experimental system were stained with PI, and the ratio of live cells was calculated based on the measured number of dead cells.
(§2) The live cell ratio {(the number of live cells/(the number of live cells+the number of dead cells)} was calculated for each experimental system (control, positive control, KS-13 (1 μg/mL), and KS-13 (10 μg/mL)), using cells that were liquid-cultured for 11 days as the target cells. The results are shown below.

[2] = tested on: human cord blood CD34(+) hematopoietic stem cell population; test: as above; details: KS-13 1 and 10 μg/mL, 11 days
Experimental: as §1, §2

[3] = tested on: mouse fetal liver hematopoietic stem cells (CD45(+)c-Kit(+)Sca-1 (+)); test: Hematopoietic colony-forming cell assay; details: for number of colonies: peptide 30 μg/mL, culturing for 12 days, 1,000 cells/dish
Experimental: KS-13 (10 μg/mL or 30 μg/mL) was added to a semisolid medium (Methocult M3434 produced by STEMCELL Technologies) containing cell stimulatory factors (50 ng/mL of rm SCF, 10 ng/mL of rm IL-3, 10 ng/mL of rh IL-6, and 3 U/mL of rh EPO) (rm: recombinant form; rh: recombinant human form), and mouse fetal liver hematopoietic stem cells (CD45(+)c-Kit(+)Sca-1 (+)) (1,000 cells/dish) were cultured. Hematopoietic colony-forming cell assay was performed to evaluate the hematopoietic potential of the cells. Further, for comparison, hematopoietic colony-forming cell assay was performed in a similar manner using a KS-13-free liquid medium (none), and the hematopoietic potential of the cells was evaluated.
Myristoylated KS-13 (30 μg/mL) in which the N-terminal of KS-13 (SEQ ID NO: 1) is myristoylated and control peptide (NQVSIGCPCDGKK: SEQ ID NO: 22) (30 μg/mL) were added to a semisolid medium (Methocult M3434 produced by STEMCELL Technologies) containing cell stimulatory factors (50 ng/mL of rm SCF, 10 ng/mL of rm IL-3, 10 ng/mL of rh IL-6, and 3 U/mL of rh EPO) (rm: recombinant form; rh: recombinant human form) to culture mouse fetal liver hematopoietic stem cells (CD45(+)c— Kit(+)Sca-1(+)) (1,000 cells/dish) therein. Then, hematopoietic colony-forming cell assay was performed to evaluate the hematopoietic potential of the cells.

| Compound | viability at 264 h, 1 µg/mL ([1]; KS-13 1 μg/mL) | viability at 264 h, 10 µg/mL ([1]; KS-13 10 μg/mL) | induction of cell death [2] | colony formation versus control peptide ([3]; 30 μg/mL, 12 days) | number of colonies [3] |
| --- | --- | --- | --- | --- | --- |
| CC[C@H](C)[C@H](NC(=O)[C@@H](NC(=O)[C@H](CS)NC(=O)[C@@H]1CCCN1C(=O)CNC(=O)[C@H](CC(=O)O)NC(=O)[C@H](CCCCN)NC(=O)[C@H](CCCCN)NC(=O)[C@H](CCC(N)=O)NC(=O)[C@@H](N)CS)C(C)C)C(=O)N[C@@H](CC(N)=O)C(=O)NCC(=O)N[C@@H](CO)C(=O)O [KS-13, Cys Gln Lys Lys Asp Gly Pro Cys Val Ile Asn Gly Ser] (H-CQKKDGPCVINGS-OH) | 97.5% | 97.6% | does not induce cell death |  |  |
| myristoylated KS-13: KS-13 (SEQ ID NO: 1) in which the N-terminal is myristoylated (Myristoyl-CQKKDGPCVINGS; cysteine pairing not given here; listed as Homo sapiens) |  |  |  | inhibited colony formation more than the control | 93.9 |
| NQVSIGCPCDGKK (Control peptide) [reference compound] |  |  |  |  | 111.1 |
